Patent US11279726B2, “Norbornene-based amphipathic compound and utilization thereof” (Industry-University Cooperation Foundation Hanyang …, priority 2017, dated 2022)

Legend:
[1] = Hydrodynamic radius / size distribution of micelles by dynamic light scattering (DLS); format: physicochemical; details: 1.0 wt % agent
Method: A method for measuring the radius of a micelle is not particularly limited, and a method well known in the art may be used, and for example, the radius thereof may be measured using a dynamic light scattering (DLS) experiment.
(§1) To identify the characteristics of NBMs synthesized in Preparation Example 1 to 6 according to the synthetic method of Example 1, molecular weights (MWs) of NBMs, critical micelle concentrations (CMCs) and hydrodynamic radii (Rh) of the micelles were measured.
(§2) Specifically, the critical micelle concentrations (CMCs) were measured by fluorescent staining with diphenylhexatriene (DPH), and the hydrodynamic radii (Rh) of the micelle formed with individual agents (1.0 wt %) were measured by dynamic light scattering (DLS).

[2] = Critical micelle concentration by fluorescent staining with diphenylhexatriene (DPH); format: physicochemical; details: aqueous solution
Method: A method for measuring CMC is not particularly limited, and a method widely known in the art may be used, for example, by fluorescence staining with diphenylhexatriene (DPH).
as §1, §2

[3] = target: T1, uric acid-xanthine/H+ symporter (UapA) (Emericella nidulans, UniProt Q07307, G411V); experiment: UapA extraction and thermal stability by fluorescence size exclusion chromatography (FSEC); set-up: species or system Aspergillus nidulans; details: 1.0 wt % amphiphile, 10 minutes at 40° C.; compared with DDM
T1 construct: made in house; host or cells: Saccharomyces cerevisiae FGY217
Method: An experiment for measuring the structural stability of uric acid-xanthine/H+ symporter (UapA) isolated from Aspergillus nidulans using NBMs was performed. The structural stability of UapA was evaluated using […].
Specifically, UapAG411VΔ1-11 (hereinafter, referred to as “UapA”) was expressed as GFP fusion in Saccharomyces cerevisiae FGY217 strain and isolated in a sample buffer (20 mM Tris (pH 7.5), 150 mM NaCl, 0.03% DDM, 0.6 mM xanthine) according to the method described in the literature written by J. Leung et al. (Mol. Membr. Biol. 2013, 30, 32-42). Membranes containing UapA were resuspended in PBS, 10 mM imidazole pH 8.0, 150 mM NaCl, 10% glycerol, and the protein concentration was measured. The membranes were adjusted to a concentration of 1 mg·ml^−1 and 1 ml aliquots were individually incubated with DDM or NBMs at a final amphiphilic material concentration of 1.0 wt % for 10 minutes at 40° C. 100 μl aliquots were removed from each tube, and a fluorescence reading was taken for each sample before and after ultracentrifugation at 150,000 g for 10 minutes to remove insoluble material. The remaining soluble fraction for each condition was submitted to fluorescent size exclusion chromatography (FSEC) using a Superose 6 column (GE Healthcare) equilibrated with DDM.

[4] = target: T2, Salmonella typhimurium melibiose permease (MelBSt) (Salmonella typhimurium, UniProt P30878); experiment: MelBSt extraction and thermostability (SDS-PAGE / western blotting); details: 1.5 wt %
T2 construct: made in house; host or cells: E. coli DW2 (ΔmelB, ΔlacZY)
Method: An experiment of measuring structural stability of MelBSt (Salmonella typhimurium melibiose permease) protein with NBMs was carried out. The MelBSt protein was extracted from the membrane using NBMs or DDM, and the amounts and structure of the extracted proteins were analyzed by SDS-PAGE and western blotting. The concentration of the used amphiphilic compound was 1.5 wt %. The proteins were extracted at four temperatures (0, 45, 55, and 65° C.) and incubated at the same temperature for 90 minutes, and the amounts of the remaining proteins solubilized in an aqueous solution were measured, so as to simultaneously evaluate both performances of the compound such as protein extraction efficiency and stabilization activity. The amounts of the proteins extracted and stabilized by respective amphiphilic molecules were represented as relative values (%) to the amounts of total proteins contained in the membrane sample not treated with an amphiphilic molecule.
Specifically, Salmonella typhimurium melibiose permease (MelBSt) with a C-terminal 10-His tag was expressed in E. coli DW2 cells (^ΔmelB and ^ΔlacZY) using plasmid pK95^ΔAHB/WT MelBSt/CH10. Cell growth and membrane preparation were carried out according to the method described in the literature written by A. S. Ethayathulla et al. (Nat. Commun. 2014, 5, 3009). Protein assays were carried out with a Micro BCA kit (Thermo Scientific, Rockford, Ill.). The measurement of MelBSt stability was carried out on NBMs or DDM according to the protocol described by P. S. Chae et al. (Nat. Methods 2010, 7, 1003-1008). Membrane samples containing MelBSt (final protein concentration was 10 mg/mL) were incubated with a solubilization buffer (20 mM sodium phosphate, pH 7.5, 200 mM NaCl, 10% glycerol, 20 mM melibiose) and 1.5% (w/v) of DDM or NBMs (X-NBM-C10, D-NBM-C10, X-NBM-C11 or D-NBM-C11) at four different temperatures (0, 45, 55, 65° C.) for 90 minutes. To remove insoluble materials, following ultracentrifugation at 355,590 g using a Beckman Optimal™ MAX ultracentrifuge with TLA-100 rotor for 45 minutes at 4° C. was performed, and 20 μg of each protein sample was separated by SDS-16% PAGE, and then immunoblotted with a Penta-His-HRP antibody (Qiagen, Germantown, Md.). MelBSt was detected using SuperSignal West Pico chemiluminescent substrate by an ImageQuant LAS 4000 Biomolecular Imager (GE Health Care Life Science).

β2AR-Gs complex = β2AR-Gs complex (Homo sapiens, UniProt P07550); experiment: Negative stain EM analysis of β2AR-Gs complex
Method: A β2AR-Gs protein complex was prepared for electron microscopy using the conventional negative staining protocol, and imaged at room temperature with a Tecnai T12 electron microscope operated at 120 kV using low-dose procedures. Images were recorded at a magnification of 71,138× and a defocus value of approximately 1.4μ using a Gatan US4000 CCD camera. All images were binned (2×2 pixels) to obtain a pixel size of 4.16 A at the specimen level. Particles were manually excised using e2boxer (part of the EMAN2 software suite). 2D reference-free alignment and classification of particle projections were performed using ISAC. 14,556 projections of β2AR-Gs were subjected to ISAC, producing 199 classes consistent over two-way matching and accounting for 10,100 particle projections.

[5] = target: T3, human β2 adrenergic receptor (β2AR) (Homo sapiens, UniProt P07550); experiment: β2AR stability: [3H]-DHA ligand binding activity of solubilized receptor
T3 construct: made in house
Method: An experiment of measuring the stability of human β2 adrenergic receptor (β2AR) and G-protein-coupled receptor (GPCR) for NBMs was carried out. That is, the receptor was extracted from the cell membranes by DDM and purified in the same amphiphilic compound. The DDM-purified receptor was diluted in individual DDM- or NBM-containing buffers to adjust the final compound concentration to be CMC+0.2 wt %. The receptor stability was assessed by measuring ligand binding activity using [3H]-DHA.
To measure long-term stability of human β2AR with NBMs (D-NBM-C11 and X-NBM-C11) showing an excellent ligand binding activity of the receptor in the previous experiment, a radio-labeled ligand binding experiment was performed by the following method. β2AR was purified using 0.1% DDM (D. M. Rosenbaum et al., Science, 2007, 318, 1266-1273), and finally concentrated to approximately 10 mg/ml (approximately 200 μM). A main binding mixture containing 10 nM [^3H]-DHA supplemented with 0.5 mg/ml BSA was prepared in 0.2% amphiphilic compound (DDM or NBMs (D-NBM-C11 and X-NBM-C11)) using β2AR purified with DDM. The receptor purified with DDM or NBMs was incubated with 10 nM [^3H]-DHA at room temperature for 30 minutes. The mixture was loaded onto a G-50 column, the fractions were collected in a 1 ml binding buffer (20 mM HEPES pH 7.5, 100 mM NaCl, containing 0.5 mg/ml BSA and 20× CMC individual amphiphilic compounds). In addition, each fraction was supplemented with a 15 ml scintillation fluid, and receptor-bound [^3H]-DHA was measured using a scintillation counter (Beckman) at regular intervals for 3 days. The binding capacity of [^3H]-DHA was shown as a bar chart (FIG. 11a).
In addition, β2AR was extracted from the membrane using 1.0 wt % of DDM or X-NBM-C11 and purified at 0.2 wt % for the same individual amphiphilic compounds. Structural stability of the receptor was assessed by ligand binding activity, which was measured with sample aliquots at regular intervals during 7-day incubation at room temperature. Each experiment was carried out in triplicate (FIG. 12b).

Row | Structure (SMILES) | Rh (nm), hydrodynamic radius of micelles [1] [nm] | CMC [2] [mM] | CMC (wt %) [2] [wt %] | Retention of monodispersed UapA-GFP peak after heating (FSEC) [3] | MelBSt membrane protein stabilization activity (overall) ([4]; elevated temperature) | Particle dispersity of β2AR-Gs complex in negative stain EM (β2AR-Gs complex) | MelBSt protein extraction (solubilization) efficiency ([4]; 0° C. and 45° C., 90 minutes) | MelBSt protein extraction efficiency ([4]; 0° C., 90 minutes) | Amount of solubilized MelBSt protein ([4]; 65° C., 90 minutes) | Long-term ligand binding activity of β2AR ([3H]-DHA) ([5]; 0.2% amphiphile, room temperature, 3 days (7 days for receptor extracted with the amphiphile)) | Initial ligand binding activity of β2AR ([3H]-DHA) ([5]; DDM-purified receptor diluted to CMC+0.2 wt % amphiphile)
1 | CCCCCCCCCOCC1C2CC([C@@H]1COCCCCCCCCC)[C@H](O[C@@H]1OC(CO)[C@@H](O[C@H]3OC(CO)[C@@H](O)C(O)C3O)C(O)C1O)C2O[C@@H]1OC(CO)[C@@H](O[C@H]2OC(CO)[C@@H](O)C(O)C2O)C(O)C1O (stereo partly drawn) [D-NBM-C9] | 3.3 ± 0.04 | ~0.012 | ~0.0013 | low recovery of monodispersed protein peak |  |  |  |  |  |  | 
2 | CCCCCCCCCCOCC1C2CC([C@@H]1COCCCCCCCCCC)[C@H](O[C@@H]1OC(CO)[C@@H](O[C@H]3OC(CO)[C@@H](O)C(O)C3O)C(O)C1O)C2O[C@@H]1OC(CO)[C@@H](O[C@H]2OC(CO)[C@@H](O)C(O)C2O)C(O)C1O (stereo partly drawn) [D-NBM-C10] | 3.5 ± 0.03 | ~0.008 | ~0.0009 | slightly lower effect than DDM | excellent membrane protein stabilization activity |  |  |  |  |  | 
3 | CCCCCCCCCCCCO[C@@H]1O[C@H](CO)[C@@H](O[C@H]2O[C@H](CO)[C@@H](O)[C@H](O)[C@H]2O)[C@H](O)[C@H]1O [DDM, n-dodecyl-β-D-maltopyranoside, reference compound] | 3.4 ± 0.03 | ~0.17 | ~0.0087 | single monodispersed peak with relatively high intensity |  | aggregated particles | high MelBSt protein extraction efficiency | higher protein extraction efficiency than NBMs | no MelBSt protein solubilized in an aqueous solution was detectable | rapidly decreased over time | excellent initial ligand binding activity
4 | CCCCCCCCCCC(CCCCCCCCCC)(CO[C@@H]1O[C@H](CO)[C@@H](O[C@H]2O[C@H](CO)[C@@H](O)[C@H](O)[C@H]2O)[C@H](O)[C@H]1O)CO[C@@H]1O[C@H](CO)[C@@H](O[C@H]2O[C@H](CO)[C@@H](O)[C@H](O)[C@H]2O)[C@H](O)[C@H]1O [MNG-3, reference compound] |  |  |  | ineffective in preventing protein denaturation/aggregation |  |  |  |  |  |  | 
5 | CCCCCCCCCOCC1C2CC([C@H]1COCCCCCCCCC)[C@H](O[C@@H]1OC(CO)[C@@H](O[C@H]3OC(CO)[C@@H](O)C(O)C3O)C(O)C1O)C2O[C@@H]1OC(CO)[C@@H](O[C@H]2OC(CO)[C@@H](O)C(O)C2O)C(O)C1O (stereo partly shown) [X-NBM-C9] | 3.7 ± 0.03 | ~0.010 | ~0.0011 | more or less comparable to DDM |  |  |  |  |  |  | 
6 | CCCCCCCCCCOCC1C2CC([C@H]1COCCCCCCCCCC)[C@H](O[C@@H]1OC(CO)[C@@H](O[C@H]3OC(CO)[C@@H](O)C(O)C3O)C(O)C1O)C2O[C@@H]1OC(CO)[C@@H](O[C@H]2OC(CO)[C@@H](O)C(O)C2O)C(O)C1O (stereo partly shown) [X-NBM-C10] | 4.0 ± 0.02 | ~0.007 | ~0.0008 | more or less comparable to DDM |  |  |  |  |  |  | 
